This test deals with human PAD4 (hPAD4) (Homo sapiens, UniProt Q9UM07). The experiment in a line: RFMS Human PAD4 Functional Assay. The class given is biochemical. Conditions: 5 nM hPAD4, 250 μM BAEE. The procedure, abridged: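 RapidFire ESI-MS quantification, normalised to a modified-citrulline internal standard, after phenyl glyoxal (final 4 mM) derivatisation of the TCA-quenched reaction. The enzyme (10 nM) sat 30 min with compound (up to 50 μM final) before 500 μM BAEE (as added) started a 90 min, 37 °C reaction. Buffer: HEPES pH 7.5, 50 μM calcium, 5 μM TPEN.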

Where [1] appears, read: hPAD4 RFMS IC50, human PAD4, rapid-fire mass spectrum (RFMS) assay.
Setting [2] is: human PAD4, rapid-fire mass spectrum (RFMS) assay, read-out: hPAD4 RFMS IC50.

Where two headings read alike, the source gives them in different places.

Chain of human PAD4 (hPAD4) (Q9UM07 whole entry): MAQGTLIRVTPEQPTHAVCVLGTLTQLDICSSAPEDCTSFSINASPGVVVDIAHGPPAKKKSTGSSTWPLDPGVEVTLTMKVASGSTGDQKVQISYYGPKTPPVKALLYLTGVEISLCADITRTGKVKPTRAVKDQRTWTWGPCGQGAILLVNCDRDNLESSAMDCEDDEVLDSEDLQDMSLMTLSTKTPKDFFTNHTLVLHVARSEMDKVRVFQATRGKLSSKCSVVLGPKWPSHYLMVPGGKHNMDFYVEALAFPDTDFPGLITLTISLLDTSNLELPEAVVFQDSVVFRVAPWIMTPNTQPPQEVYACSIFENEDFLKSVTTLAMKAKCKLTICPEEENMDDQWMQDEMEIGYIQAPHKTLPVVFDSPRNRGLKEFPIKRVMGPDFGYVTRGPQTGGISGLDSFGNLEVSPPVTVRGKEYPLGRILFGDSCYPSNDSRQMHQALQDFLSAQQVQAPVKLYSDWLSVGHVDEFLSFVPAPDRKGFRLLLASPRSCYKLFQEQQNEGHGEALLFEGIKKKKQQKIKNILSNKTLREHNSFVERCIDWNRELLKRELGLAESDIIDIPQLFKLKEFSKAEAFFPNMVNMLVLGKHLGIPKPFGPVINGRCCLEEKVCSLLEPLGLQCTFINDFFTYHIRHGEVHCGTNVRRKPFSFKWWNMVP

What is called IC50 is the concentration that inhibits the measured activity by half. As to `COc1cc(C(=O)N2C[C@H]3CC[C@@H]2[C@@H]3N)cc2nc(-c3cc4cccc(-c5cc[nH]n5)c4n3CC3CC3C)n(C)c12` (stereo partly drawn) [Example 157, ((1R,4R,7R)-7-amino-2-azabicyclo[2.2.1]heptan-2-yl)(7-methoxy-1-methyl-2-(1-((2-methylcyclopropyl)meth-yl)-7-(1H-pyrazol-3-yl)-1H-indol-2-yl)-1H-benzo[d]imidazol-5-yl)methanone], the IC50 under setting [1] was 0.08 µM.

On to `COC(=O)N1CC(c2cccc3cc(-c4nc5cc(C(=O)N6C[C@H]7CC[C@@H]6[C@@H]7N)cc(OC)c5n4Cc4cnn(C)c4)n(C)c23)C1` [Example 216, methyl 3-(2-(5-((1R,4R,7R)-7-amino-2-azabicyclo[2.2.1]heptane-2-carbonyl)-7-methoxy-1-((1-methyl-1H-pyrazol-4-yl)methyl)-1H-benzo[d]imidazol-2-yl)-1-methyl-1H-indol-7-yl)azetidine-1-carboxylate], for which the IC50 under setting [1] stood at 0.101 µM. Same read-out and setting: the figure for `COc1cc(C(=O)N2CC3CCC2[C@@H]3N)cc2nc(-c3cc4cccc(-c5ccc(NC(C)=O)cc5)c4n3CC3CC3)n(C)c12` (stereo partly drawn) [Example 133, N-(4-(2-(5-((7R)-7-amino-2-azabicyclo[2.2.1]heptane-2-carbonyl)-7-methoxy-1-methyl-1H-benzo[d]imidazol-2-yl)-1-(cyclopropylmethyl)-1H-indol-7-yl)phenyl)acetamide] is 0.121 µM.

As for `COc1cc(C(=O)N2C[C@H]3CC[C@@H]2[C@@H]3N)cc2nc(-c3cc4cccc(C5=CCNCC5)c4n3CC3CC3)n(C)c12` [Example 84], the half-inhibitory concentration (IC50) under setting [2] is 0.034 µM. For the molecule `CNC(=O)C1CC(c2cccc3cc(-c4nc5cc(C(=O)N6C[C@H]7CC[C@@H]6[C@@H]7N)cc(OC)c5n4C)n(CC4CC4)c23)C1` (single isomer, unassigned) [Example 44], the IC50 under setting [2] turned out to be 0.048 µM. The molecule `COc1cc(C(=O)N2C[C@H]3CC[C@@H]2[C@@H]3N)cc2nc(-c3cc4cccc(C5CC(C(=O)N6CCC6)C5)c4n3CC3CC3)n(C)c12` (single isomer, unassigned; isomer 2) [Example 203] had an IC50 under setting [1] of 0.046 µM. On to `COc1cc(C(=O)N2C[C@H]3CC[C@@H]2[C@@H]3N)cc2nc(-c3cc4cccc(C5CCN(C(=O)Nc6ccncc6)CC5)c4n3CC3CC3)n(C)c12` [Example 245, 4-(2-(5-((1R,4R,7R)-7-amino-2-azabicyclo[2.2.1]heptane-2-carbonyl)-7-methoxy-1-methyl-1H-benzo[d]imidazol-2-yl)-1-(cyclopropylmethyl)-1H-indol-7-yl)-N-(pyridin-4-yl)piperidine-1-carboxamide], for which, under setting [1], the IC50 worked out at 0.013 µM.

For the molecule `COc1cc(C(=O)N2C[C@H]3CC[C@@H]2[C@@H]3N)cc2nc(-c3cc4cccc(-c5ccc(O)c(C(N)=O)c5)c4n3CC3CC3)n(C)c12` [Example 120, 5-(2-(5-((1R,4R,7R)-7-amino-2-azabicyclo[2.2.1]heptane-2-carbonyl)-7-methoxy-1-methyl-1H-benzo[d]imidazol-2-yl)-1-(cyclopropylmethyl)-1H-indol-7-yl)-2-hydroxybenzamide], under setting [2], the IC50 turned out to be 0.065 µM.

The molecule `COc1cc(C(=O)N2C[C@H]3CC[C@@H]2[C@@H]3N)cc2nc(-c3cc4cccc(-c5cnc(C(N)=O)c(F)c5)c4n3CC3CC3)n(C)c12` [Example 199, 5-(2-(5-((1R,4R,7R)-7-amino-2-azabicyclo[2.2.1]heptane-2-carbonyl)-7-methoxy-1-methyl-1H-benzo[d]imidazol-2-yl)-1-(cyclopropylmethyl)-1H-indol-7-yl)-3-fluoropicolinamide] yielded an IC50 under setting [1] of 0.159 µM. On the same count and under the same terms, as for `COc1cc(C(=O)N2C[C@H]3CC[C@@H]2[C@@H]3N)cc2nc(-c3cc4cccc(-c5ccc6[nH]c(=O)cc(C)c6c5)c4n3CC3CC3)n(C)c12` [Example 95, 6-(2-{5-[(1R,4R,7R)-7-amino-2-azabicyclo[2.2.1]heptane-2-carbonyl]-7-methoxy-1-methyl-1H-1,3-benzodiazol-2-yl}-1-(cyclopropylmethyl)-1H-indol-7-yl)-4-methyl-1,2-dihydroquinolin-2-one], the figure is 0.107 µM.

The record behind these values is patent US20220402950A1, “SUBSTITUTED BENZIMIDAZOLES AS PAD4 INHIBITORS” (BRISTOL-MYERS SQUIBB COMPANY, priority 2018, published 2022).
